From patent publication US8658604B2, “Template-fixed beta-hairpin peptidomimetics with protease inhibitory activity” (Polyphor Ltd, priority 2005, dated 2014)
Where a SMILES comes first, the peptide text is derived from it.

Assays:
[1] = biological target: Trypsin, from human pancreas (Homo sapiens, UniProt P07477)
[2] = biological target: T1, Chymotrypsin, from human pancreas (Homo sapiens, UniProt P17538)
[3] = tested on: HELA cells (Acc57); assay: Cytotoxicity assay (MTT reduction), HELA cells; assay type: cell-based; details: Hela cells
How it was run: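 HeLa cells were grown for 24 h, then exposed to peptides at 12.5, 25 and 50 μM in triplicate for 48 h at 37 °C. MTT reduction was read at 595 nm and growth % calculated relative to time-zero wells. LC50 interpolated by linear trend at −50% growth, GI50 at 50%.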

[4] = biological target: Thrombin, from Human Plasma (Homo sapiens, UniProt P00734)
[5] = biological target: T2, Elastase from human neutrophils (Homo sapiens, UniProt P08246); assay: Enzymatic assay, elastase; details: Elastase IC50
T2 sequence (P08246 30-267): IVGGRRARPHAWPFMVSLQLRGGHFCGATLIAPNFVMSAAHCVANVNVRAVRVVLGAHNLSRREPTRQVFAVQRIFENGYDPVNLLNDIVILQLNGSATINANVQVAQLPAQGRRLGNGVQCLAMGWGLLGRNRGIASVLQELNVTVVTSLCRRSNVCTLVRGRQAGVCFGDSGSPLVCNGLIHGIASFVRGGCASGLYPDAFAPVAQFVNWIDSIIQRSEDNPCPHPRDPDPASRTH

[6] = biological target: Urokinase from human urine (Homo sapiens, UniProt P00749)
[7] = biological target: T3, Chymase, from human skin (Homo sapiens, UniProt P23946)
T3 sequence (P23946 22-247): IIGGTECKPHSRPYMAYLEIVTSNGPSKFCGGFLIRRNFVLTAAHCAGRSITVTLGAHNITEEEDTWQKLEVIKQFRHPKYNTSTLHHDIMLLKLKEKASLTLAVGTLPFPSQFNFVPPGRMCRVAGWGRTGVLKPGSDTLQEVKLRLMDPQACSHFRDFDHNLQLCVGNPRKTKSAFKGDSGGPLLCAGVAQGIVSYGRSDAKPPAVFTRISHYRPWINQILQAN

[8] = tested on: Tryptase, from human lung; assay: Enzymatic assay, tryptase; details: at 100 μM
[9] = biological target: Coagulation Factor Xa, from uman plasma (Homo sapiens, UniProt P00742)
Sequence of Coagulation Factor Xa, from uman plasma (P00742 235-488 limits assumed): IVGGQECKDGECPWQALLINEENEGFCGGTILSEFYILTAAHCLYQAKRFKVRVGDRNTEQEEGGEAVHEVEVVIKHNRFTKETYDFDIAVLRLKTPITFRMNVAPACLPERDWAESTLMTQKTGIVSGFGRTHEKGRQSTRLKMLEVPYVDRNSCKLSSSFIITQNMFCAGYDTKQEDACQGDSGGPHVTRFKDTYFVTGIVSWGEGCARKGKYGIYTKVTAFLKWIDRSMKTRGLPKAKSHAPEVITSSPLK
Sequence of Coagulation Factor Xa, from uman plasma (P00742 41-179 limits assumed): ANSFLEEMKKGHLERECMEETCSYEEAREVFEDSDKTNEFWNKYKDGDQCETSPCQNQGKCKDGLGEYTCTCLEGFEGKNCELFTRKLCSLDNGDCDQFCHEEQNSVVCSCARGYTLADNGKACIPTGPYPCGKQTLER

[10] = biological target: T4, CathepsinG, from human neutrophils (Homo sapiens, UniProt P08311); assay: Enzymatic assay, cathepsin G; details: Cathepsin G IC50
T4 sequence (P08311 21-244): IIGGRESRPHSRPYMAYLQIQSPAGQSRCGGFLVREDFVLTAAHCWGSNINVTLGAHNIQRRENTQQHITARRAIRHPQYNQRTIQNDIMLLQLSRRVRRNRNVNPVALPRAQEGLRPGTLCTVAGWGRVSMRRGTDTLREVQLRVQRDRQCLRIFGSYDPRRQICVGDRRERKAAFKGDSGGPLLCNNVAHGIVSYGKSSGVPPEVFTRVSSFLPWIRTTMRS

[11] = tested on: human red blood cells (hRBC); assay: Hemolysis
Protocol: The peptides were tested for their hemolytic activity against human red blood cells (hRBC). Fresh hRBC were washed three times with phosphate buffered saline (PBS) by centrifugation for 10 min at 2000×g. Peptides at a concentration of 100 μM were incubated with 20% v/v hRBC for 1 hour at 37° C. The final erythrocyte concentration was approximately 0.9×10^9 cells per ml. A value of 0% and, respectively, 100% cell lysis was determined by incubation of the hRBC in the presence of PBS alone and, respectively, 0.1% Triton X-100 in H2O. […] The 100% lysis value (OD540H20) gave an OD540 of approximately 1.3-1.8. Percent hemolysis was calculated as follows: (OD540peptide/OD540H20)×100%.

[12] = assay type: in vitro ADME; details: 10 µM
Protocol: 405 μl of plasma/albumin solution were placed in a polypropylene (PP) tube and spiked with 45 μl of compound from a […] solution B, derived from 135 μl of PBS and 15 μl of 1 mM peptide in PBS, pH 7.4. 150 μl aliquots were transferred into individual wells of the 10 kDa filter plate (Millipore MAPPB 1010 Biomax membrane). For “0 minutes controls”: 270 μl of PBS were placed in a PP tube and 30 μl of stock solution B was added and vortexed. 150 μl of control solution were placed into one well of the filter plate and served as “filtered control”.
Further 150 μl of control solution were placed directly into a receiver well (reserved for filtrate) and served as “not-filtered control”. The entire plate including evaporation lid was incubated for 60 min at 37° C. Plasma samples (rat plasma: Harlan Sera lab UK, human plasma: Blutspendezentrum Zürich) were centrifuged at least for 2 h at 4300 rpm (3500 g) and 15° C. in order to yield 100 filtrate. For “serum albumin”-samples (freshly prepared human albumin: Sigma A-4327, rat albumin: Sigma A-6272, all at 40 mg/ml concentration in PBS) approximately 1 hour of centrifugation was sufficient. The filtrates in the receiver PP plate were analysed by LC/MS as follower follows: Column: Jupiter C18 (Phenomenex), mobile phases: (A) 0.1% formic acid in water and (B) acetonitrile, gradient: 5%-100% (B) in 2 minutes, electrospray ionization, MRM detection (triple quadrupole). The peak areas were determined and triplicate values were averaged. The binding was expressed in percent of the (filtered and not-filtered time point 0 min) control 1 and 2 by: 100−(100×T60/T0). The average from these values was then calculated.

[13] = biological target: T1, Chymotrypsin, from human pancreas; assay: Enzymatic assay, chymotrypsin
[14] = biological target: T4, CathepsinG, from human neutrophils

T1 sequence (P17538 19-263): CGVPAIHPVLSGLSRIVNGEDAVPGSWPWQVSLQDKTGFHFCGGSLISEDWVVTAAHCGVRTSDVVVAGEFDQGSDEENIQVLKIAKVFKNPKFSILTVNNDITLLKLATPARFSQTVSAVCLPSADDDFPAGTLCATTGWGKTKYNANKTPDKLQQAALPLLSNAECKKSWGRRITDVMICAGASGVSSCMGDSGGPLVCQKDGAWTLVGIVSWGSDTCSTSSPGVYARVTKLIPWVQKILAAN

Structure (SMILES)	Trypsin at 100 μM % [1]	Chymotrypsin at 100 μM % [2]	Cytotoxicity LC50/GI50 Hela cells [3]	Thrombin at 100 μM % [4]	IC50 [5]	Urokinase at 100 μM % [6]	Chymase at 100 μM % [7]	Tryptase at 100 μM % [8]	FXa at 100 μM % [9]	IC50 [10]	Hemolysis at 100 μM % [11]	Stability human Plasma t1/2 [12]	Stability rat Plasma t1/2 [12]	IC50 [13]	Cathepsin G at 100 μM % [14]
CC[C@H](C)[C@@H]1NC(=O)[C@@H]2CCCN2C(=O)[C@@H]2CCCN2C(=O)[C@H](CC(=O)O)NC(=O)[C@H](CO)NC(=O)[C@H](CCCCN)NC(=O)[C@H]([C@@H](C)O)NC(=O)[C@@H]2CSSC[C@H](NC1=O)C(=O)N[C@@H](CCCNC(=N)N)C(=O)N1CCC[C@@H]1C(=O)N1CCC[C@H]1C(=O)N[C@@H](C1CCCCC1)C(=O)N2 [Ex. 12] (HELM PEPTIDE1{[O=C([C@@H](N[*:1])C1CCCCC1)[*:2]].C.T.K.S.D.P.P.I.C.R.[dP].P}$PEPTIDE1,PEPTIDE1,2:R3-10:R3|PEPTIDE1,PEPTIDE1,1:R1-13:R2$$$V2.0)	97%	28%	59.3 µM	11%	37 µM	12%	12%	59.3%	5%	0.09 µM	–	–	–	–	–
CCCC[C@@H]1NC(=O)[C@H]([C@@H](C)O)NC(=O)[C@@H]2CSSC[C@H](NC(=O)[C@H]([C@@H](C)CC)NC(=O)[C@@H]3CCCN3C(=O)[C@@H]3CCCN3C(=O)[C@H](CC(=O)O)NC(=O)[C@H](CO)NC1=O)C(=O)N[C@@H](CCCNC(=N)N)C(=O)N1CCC[C@@H]1C(=O)N1CCC[C@H]1C(=O)N[C@@H]([C@@H](C)CC)C(=O)N2 [Ex. 22] (HELM PEPTIDE1{I.C.T.[Nle].S.D.P.P.I.C.R.[dP].P}$PEPTIDE1,PEPTIDE1,2:R3-10:R3|PEPTIDE1,PEPTIDE1,1:R1-13:R2$$$V2.0)	84. %	0%	8 µM	–	> 100 µM	5.7%	98.8%	3.8%	–	0.055 µM	0%	5 h	5 h	–	–
CCCCCCCC[C@@H]1NC(=O)[C@H](CO)NC(=O)[C@H](C)NC(=O)[C@H]([C@@H](C)O)NC(=O)[C@@H]2CSSC[C@H](NC(=O)[C@H](CCC(N)=O)NC(=O)[C@@H]3CCCN3C(=O)[C@@H]3CCCN3C1=O)C(=O)N[C@@H](Cc1ccc(O)cc1)C(=O)N1CCC[C@@H]1C(=O)N1CCC[C@H]1C(=O)N[C@@H](CCCC)C(=O)N2 [Ex. 81] (HELM PEPTIDE1{[Nle].C.T.A.S.[CCCCCCCC[C@H](N[*:1])C(=O)[*:2]].P.P.Q.C.Y.[dP].P}$PEPTIDE1,PEPTIDE1,2:R3-10:R3|PEPTIDE1,PEPTIDE1,1:R1-13:R2$$$V2.0)	–	–	58 µM	13.1%	0.028 µM	–	–	–	8.7%	–	–	–	–	100 µM	61.3 at 100%
CCCC[C@@H]1NC(=O)[C@@H]2CCCN2C(=O)[C@H]2CCCN2C(=O)[C@H](Cc2ccc(O)cc2)NC(=O)[C@H]([C@@H](C)O)NC(=O)[C@H](CCC(N)=O)NC(=O)[C@@H]2CCCN2C(=O)[C@@H]2CCCN2C(=O)[C@H]([C@@H](C)CC)NC(=O)[C@H](CO)NC(=O)[C@H](C)NC(=O)[C@H]([C@@H](C)O)NC(=O)[C@H](CCC(N)=O)NC1=O [Ex. 109] (HELM PEPTIDE1{[Nle].Q.T.A.S.I.P.P.Q.T.Y.[dP].P}$PEPTIDE1,PEPTIDE1,1:R1-13:R2$$$V2.0)	0%	–	–	0%	0.033 µM	–	0.1%	–	5.6%	–	–	–	–	0.0138 µM	54.1 at 100%
